Patent US20260183322A1, “BORON-BASED ENOLASE LIGANDS AND METHODS OF USE FOR TREATMENT OF CANCER” (LOMA LINDA UNIVERSITY, priority 2022, published 2026)
pIC50: −log10 of the molar value.

Columns and labels:
Format in all cases: cell-based
[1] = test system: parental and DR cell lines (PC3 and DU145); test: Cytotoxic activity in parental and DR prostate cancer cell lines; conditions: for cytotoxic activity (anti-cancer effects): general statement; for cytotoxicity compared with the other compounds of the ten: in vitro cytotoxicity and anti-proliferative data in docetaxel resistant PCa cell lines; for cell viability: parental and DR cell lines (PC3 and DU145)
From the text: Out of the initial ten compounds, two target-to-hit specific ligands were identified, BT-768 and BT-772, from the diazaborine-based pharmacophore group and 2-Chloro substituted acetamide derivatives. BT-768 and BT-772 were selected for further studies based on their in vitro cytotoxicity and anti-proliferative data in docetaxel resistant PCa cell lines (see FIG. 3A and FIG. 3B, and FIG. 4A and FIG. 4B). […] The boron-based ligands BT-768 and BT-772 cytotoxic activity in parental and DR cell lines (PC3 and DU145) were then measured.
(§1) FIG. 3A and FIG. 3B, for example, are graphical representations of 3-(4,5-dimethylthiazol-2-yl)-2,5-diphenyl-2H-tetrazolium bromide MTT assay-based dose response curve for the ligand BT-772. FIG. 3A and FIG. 3B represent the average of three independent experiments in triplicates normalized to untreated control assays. As shown in FIG. 3A and FIG. 3B, cell viability was measured by MTT assay. In FIG. 3A, PC3 and PC3-DR cells were treated with increasing concentrations of BT-772 for twenty-four hours.
(§2) In FIG. 3B, DU145 and DU145-DR cells were treated with increasing concentrations of BT-772 for twenty-four hours.

DU145-DR cells = test: Clonogenic assay, DU145-DR; conditions: DU145-DR cells growing as colonies
Experimental: (§3) FIG. 4B is a photographic image of a clonogenic assay-based dose response for the ligand BT-772 in the DU145 and DU145-DR cell lines, in accordance with an embodiment of the disclosure.
(§4) FIG. 4A and FIG. 4B, for example, show images of clonogenic assays, used primarily to determine cancer cell colony formation capacity and proliferation. In FIG. 4A, PC3 and PC3-DR cells were grown at low density in 6-well plates and allowed to form clones for 10 days.
(§5) In FIG. 4B, DU145 and DU145-DR cells growing as colonies were treated with low micromolar concentrations of BT-772 and clonogenicity was noticeable inhibited at concentrations above 3 μM in DU145 cells and at concentrations above 1 μM in DU145-DR cells.

PC3-DR cells = test: Clonogenic assay, PC3-DR; conditions: 6-well plates, 10 days
Experimental: FIG. 4A is a photographic image of a clonogenic assay-based dose response for the ligand BT-772 in the PC3 and PC3-DR cell lines, in accordance with an embodiment of the disclosure.
as §4

[2] = test system: DU145-DR (taxane resistant variant of DU145); test: MTT assay cell viability, DU145-DR; conditions: Homo sapiens, DU-145, DU145-DR cells, twenty-four hours, read-out: IC50, cytotoxic activity
From the text: (§6) FIG. 3B is a graphical representation of 3-(4,5-dimethylthiazol-2-yl)-2,5-diphenyl-2H-tetrazolium bromide MTT assay-based dose response curve for the ligand BT-772 in the DU145 prostate cancer cell line and its taxane resistant variant DU145-DR, in accordance with an embodiment of the disclosure.
as §1, §2

[3] = test system: PC3 prostate cancer cell line; test: MTT assay cell viability, PC3; conditions: Homo sapiens, PC-3, PC3 cells, twenty-four hours, read-out: IC50 (drug concentration causing 50% inhibition), cytotoxic activity
From the text: (§7) FIG. 3A is a graphical representation of 3-(4,5-dimethylthiazol-2-yl)-2,5-diphenyl-2H-tetrazolium bromide (MTT) assay-based dose response curve for the ligand BT-772 in the PC3 prostate cancer cell line and its taxane resistant variant PC3-DR, in accordance with an embodiment of the disclosure.
as §1

[4] = test system: DU145 prostate cancer cell line; test: MTT assay cell viability, DU145; conditions: Homo sapiens, DU-145, DU145 cells, twenty-four hours, read-out: IC50, cytotoxic activity
From the text: as §6, §1, §2

[5] = test system: PC3-DR (taxane resistant variant of PC3); test: MTT assay cell viability, PC3-DR; conditions: PC3-DR cells, twenty-four hours, read-out: IC50 (drug concentration causing 50% inhibition), cytotoxic activity
From the text: as §7, §1

DU145 cells = test: Clonogenic assay, DU145; conditions: DU145 cells growing as colonies
Experimental: as §3, §4, §5

N#Cc1ccc(B2Nc3ccccc3-c3nc4ccccc4n32)s1 [BT-768, 5-(benzo[e]benzo[4,5]imidazo[1,-c][1,3,2]diazaborinin-6 (5H)-yl)thiopene-2-carbonitrile]
cytotoxic activity (anti-cancer effects) [1]: low μM cytotoxic activity | cytotoxicity compared with the other compounds of the ten [1]: higher cytotoxic than the other eight compounds | cell viability [1]: dose-dependent reduction in cell viability

Cc1ccc(CN(C(=O)CCl)c2cccc(B3OC(C)(C)C(C)(C)O3)c2)cc1 [BT-772, 2-chloro-N-(4-methylbenzyl)-N-(3-(4,4,5,5-tetramethyl-1,3,2-dioxaborolan-2-yl)phenyl) acetamide]
concentration above which clonogenicity was noticeably inhibited (DU145-DR cells): above 1 μM | concentration above which clonogenicity was noticeably inhibited (PC3-DR cells): above 3 M | pIC50 [2]: 5.00 to 5.30 | pIC50 [3]: 5.00 to 5.30 | cytotoxic activity (anti-cancer effects) [1]: low μM cytotoxic activity | cytotoxicity compared with the other compounds of the ten [1]: higher cytotoxic than the other eight compounds | cell viability [1]: dose-dependent reduction in cell viability | pIC50 [4]: 5.00 to 5.30 | pIC50 [5]: 5.00 to 5.30 | concentration above which clonogenicity was noticeably inhibited (DU145 cells): above 3 μM
